Measurements published in ChEMBL document CHEMBL1201862, “PubChem BioAssay data set” (2004).
Activity calls are given as the source filed them.

How the values were obtained:
[1] = target: T1, Nucleotide-binding oligomerization domain-containing protein 1 (Homo sapiens, UniProt Q9Y239); assay: SAR analysis of NF-kappaB dependent luciferase using DAP as an inducer - Set 2. [Related pubchem assays (depositor defined):AID1566, AID1575, AID1578, AID1579, AID1849, AID1852, AID2264]; assay type: functional
T1 sequence (Q9Y239 whole entry): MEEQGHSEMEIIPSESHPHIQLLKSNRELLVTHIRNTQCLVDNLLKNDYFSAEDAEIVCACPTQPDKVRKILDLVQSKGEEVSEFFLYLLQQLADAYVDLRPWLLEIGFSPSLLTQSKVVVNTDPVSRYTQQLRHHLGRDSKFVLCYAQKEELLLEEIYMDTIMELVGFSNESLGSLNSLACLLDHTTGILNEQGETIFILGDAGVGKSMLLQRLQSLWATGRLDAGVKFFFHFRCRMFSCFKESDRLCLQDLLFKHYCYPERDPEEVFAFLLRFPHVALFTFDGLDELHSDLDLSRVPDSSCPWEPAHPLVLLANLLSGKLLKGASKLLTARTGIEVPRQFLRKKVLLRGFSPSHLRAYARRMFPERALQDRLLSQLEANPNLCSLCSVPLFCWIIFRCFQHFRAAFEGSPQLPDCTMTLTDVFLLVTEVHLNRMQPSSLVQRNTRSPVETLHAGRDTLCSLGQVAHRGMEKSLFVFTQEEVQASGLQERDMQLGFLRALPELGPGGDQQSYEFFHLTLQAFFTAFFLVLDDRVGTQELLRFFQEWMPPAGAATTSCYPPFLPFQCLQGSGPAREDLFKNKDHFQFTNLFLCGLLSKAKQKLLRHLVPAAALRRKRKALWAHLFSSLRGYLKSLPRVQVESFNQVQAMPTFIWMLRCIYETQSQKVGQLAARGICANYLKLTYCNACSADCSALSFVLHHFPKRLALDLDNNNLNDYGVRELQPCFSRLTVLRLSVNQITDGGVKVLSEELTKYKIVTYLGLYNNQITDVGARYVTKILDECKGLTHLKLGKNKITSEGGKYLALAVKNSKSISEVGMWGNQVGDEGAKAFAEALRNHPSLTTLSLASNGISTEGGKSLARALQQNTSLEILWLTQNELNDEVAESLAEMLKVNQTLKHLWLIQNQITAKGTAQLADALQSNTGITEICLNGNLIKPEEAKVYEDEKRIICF

Interleukin-8 [2] = target: T2, Interleukin-8 (Homo sapiens, UniProt P10145); assay: SAR analysis of Tumor necrosis factor alpha (TNF-alpha) induced IL-8 secretion in MCF-7/NOD1 cells - Set 2. [Related pubchem assays (depositor defined):AID1575, AID2250, AID2260]; assay type: functional, cell-based
T2 sequence (P10145 whole entry): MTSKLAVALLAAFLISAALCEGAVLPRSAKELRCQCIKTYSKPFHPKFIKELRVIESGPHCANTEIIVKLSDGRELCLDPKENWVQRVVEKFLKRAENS

Interleukin-8 [3] = target: T2, Interleukin-8; assay: SAR analysis of GM-Tri-DAP induced IL-8 secretion in MCF-7/NOD1 cells - Set 2. [Related pubchem assays (depositor defined):AID1575, AID1578, AID2333]; assay type: functional, cell-based
[4] = target: T3, Nucleotide-binding oligomerization domain-containing protein 2 (Homo sapiens, UniProt Q9HC29); assay: inhibition of NOD2 signaling – set 2, SAR follow-up (AID 2475); assay type: functional
T3 sequence (Q9HC29 whole entry, the tested form may be a part): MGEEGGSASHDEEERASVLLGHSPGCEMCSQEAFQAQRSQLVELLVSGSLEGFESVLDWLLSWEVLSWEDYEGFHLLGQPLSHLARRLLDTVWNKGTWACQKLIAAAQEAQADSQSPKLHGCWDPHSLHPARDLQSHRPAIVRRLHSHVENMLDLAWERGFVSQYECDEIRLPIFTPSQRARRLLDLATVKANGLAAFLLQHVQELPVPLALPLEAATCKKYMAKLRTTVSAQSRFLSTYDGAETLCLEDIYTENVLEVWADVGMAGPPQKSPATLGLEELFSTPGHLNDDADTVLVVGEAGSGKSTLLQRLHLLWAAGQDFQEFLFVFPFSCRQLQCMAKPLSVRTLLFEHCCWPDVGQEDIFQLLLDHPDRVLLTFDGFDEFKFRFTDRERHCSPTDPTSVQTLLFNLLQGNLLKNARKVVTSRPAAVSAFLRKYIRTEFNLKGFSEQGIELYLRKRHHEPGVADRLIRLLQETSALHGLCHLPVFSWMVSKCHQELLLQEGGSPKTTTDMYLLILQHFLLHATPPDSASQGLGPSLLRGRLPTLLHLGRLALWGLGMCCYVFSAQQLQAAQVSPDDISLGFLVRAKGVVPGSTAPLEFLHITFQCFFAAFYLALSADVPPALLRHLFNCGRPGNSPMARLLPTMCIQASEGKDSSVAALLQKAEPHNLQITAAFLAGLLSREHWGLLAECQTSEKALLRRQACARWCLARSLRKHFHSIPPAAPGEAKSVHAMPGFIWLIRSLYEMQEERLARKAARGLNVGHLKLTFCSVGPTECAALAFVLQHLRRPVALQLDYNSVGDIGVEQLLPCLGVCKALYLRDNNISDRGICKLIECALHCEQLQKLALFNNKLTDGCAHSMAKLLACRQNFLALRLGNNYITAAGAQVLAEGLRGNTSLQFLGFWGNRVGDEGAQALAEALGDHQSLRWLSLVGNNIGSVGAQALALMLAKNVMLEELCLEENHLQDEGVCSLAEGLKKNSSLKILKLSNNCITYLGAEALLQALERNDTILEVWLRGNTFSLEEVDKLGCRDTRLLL

HEK293 [5] = assay: SAR analysis of compounds that are cytotoxic to HEK293 - Set 2. [Related pubchem assays (depositor defined):AID1575, AID1578, AID1849, AID2001, AID2333, AID2334, AID2335, AID2337, AID2800]; assay type: functional, cell-based; conditions: Homo sapiens
[6] = target: T1, Nucleotide-binding oligomerization domain-containing protein 1; assay: SAR analysis of compounds that inhibit NOD1 - Set 2. [Related pubchem assays (depositor defined):AID1566, AID1575, AID1578, AID1849, AID1852, AID2333, AID2335, AID2798]; assay type: functional
[7] = target: T1, Nucleotide-binding oligomerization domain-containing protein 1; assay: SAR analysis of compounds that inhibit NOD1 - Set 3. [Related pubchem assays (depositor defined):AID1566, AID1575, AID1578, AID1849, AID1852, AID2333, AID2335, AID2466]; assay type: functional
Tumor necrosis factor = Tumor necrosis factor (Homo sapiens, UniProt P01375); assay: analog potency on TNFa NF-kB signaling – cell-based, set 3, SAR follow-up (AID 2801); assay type: functional
Tumor necrosis factor, sequence (P01375 whole entry): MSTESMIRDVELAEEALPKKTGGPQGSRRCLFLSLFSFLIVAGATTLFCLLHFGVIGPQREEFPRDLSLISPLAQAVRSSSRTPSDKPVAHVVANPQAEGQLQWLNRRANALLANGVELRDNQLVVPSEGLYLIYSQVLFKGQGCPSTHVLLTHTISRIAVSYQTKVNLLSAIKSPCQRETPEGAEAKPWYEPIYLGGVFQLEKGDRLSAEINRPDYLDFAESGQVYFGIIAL

HEK293 [8] = assay: SAR analysis of compounds that are cytotoxic to HEK293 - Set 3. [Related pubchem assays (depositor defined):AID1575, AID1578, AID1848, AID1849, AID2001, AID2333, AID2334, AID2335, AID2337, AID2469]; assay type: functional, cell-based; conditions: Homo sapiens
[9] = target: T3, Nucleotide-binding oligomerization domain-containing protein 2; assay: inhibition of MDP-driven NOD2 NF-kB reporter – cell-based, set 3, SAR follow-up (AID 2799); assay type: functional
[10] = target: Beta-2 adrenergic receptor (Homo sapiens, UniProt P07550); assay: ADRB2 activation measured by internalization – cell-based, FAP fluorogen, flow cytometry, cherry pick 1, dose response (AID 588763); assay type: functional
Beta-2 adrenergic receptor, sequence (P07550 whole entry): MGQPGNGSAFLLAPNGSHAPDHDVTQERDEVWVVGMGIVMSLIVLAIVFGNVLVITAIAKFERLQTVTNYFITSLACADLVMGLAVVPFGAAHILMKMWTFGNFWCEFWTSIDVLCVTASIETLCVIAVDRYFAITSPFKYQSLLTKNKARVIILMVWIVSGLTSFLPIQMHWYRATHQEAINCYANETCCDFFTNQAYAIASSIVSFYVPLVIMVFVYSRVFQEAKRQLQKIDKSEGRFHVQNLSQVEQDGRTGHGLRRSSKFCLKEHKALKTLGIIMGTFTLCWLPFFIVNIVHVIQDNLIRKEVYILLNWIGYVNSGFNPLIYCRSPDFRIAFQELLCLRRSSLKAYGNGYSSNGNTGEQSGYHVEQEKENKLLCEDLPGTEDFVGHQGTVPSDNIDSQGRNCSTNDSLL

[11] = reduction of Shn3 3'UTR-driven luciferase in osteoblasts – cell-based, Clone20 osteoblasts, firefly luciferase, cherry-picked, dose response (AID 624132); assay type: functional;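 also: firefly luciferase luminescence from reporter carrying the Shn3 3'UTR in osteoblasts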
[12] = non-specific 3'UTR reporter inhibition in Clone20-Shn3RL – cell-based, Renilla luciferase, cherry-picked, counter-screen for Shn3 inhibitor project, dose response (AID 624133); assay type: functional
[13] = Shn3 3'UTR reporter signal decrease – cell-based, Clone20 osteoblasts, firefly luciferase, cherry-pick, set 2, Schnurri-3 inhibitor project, dose response (AID 720490); assay type: functional;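 also: actives lower the luminescence signal as inhibitors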
[14] = target: Voltage-gated inwardly rectifying potassium channel KCNH2 (Homo sapiens, UniProt Q12809); conditions: Potency;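 also: confirmatory quantitative high-throughput screen measuring inhibition of hERG channel activity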
Voltage-gated inwardly rectifying potassium channel KCNH2, sequence (Q12809 whole entry): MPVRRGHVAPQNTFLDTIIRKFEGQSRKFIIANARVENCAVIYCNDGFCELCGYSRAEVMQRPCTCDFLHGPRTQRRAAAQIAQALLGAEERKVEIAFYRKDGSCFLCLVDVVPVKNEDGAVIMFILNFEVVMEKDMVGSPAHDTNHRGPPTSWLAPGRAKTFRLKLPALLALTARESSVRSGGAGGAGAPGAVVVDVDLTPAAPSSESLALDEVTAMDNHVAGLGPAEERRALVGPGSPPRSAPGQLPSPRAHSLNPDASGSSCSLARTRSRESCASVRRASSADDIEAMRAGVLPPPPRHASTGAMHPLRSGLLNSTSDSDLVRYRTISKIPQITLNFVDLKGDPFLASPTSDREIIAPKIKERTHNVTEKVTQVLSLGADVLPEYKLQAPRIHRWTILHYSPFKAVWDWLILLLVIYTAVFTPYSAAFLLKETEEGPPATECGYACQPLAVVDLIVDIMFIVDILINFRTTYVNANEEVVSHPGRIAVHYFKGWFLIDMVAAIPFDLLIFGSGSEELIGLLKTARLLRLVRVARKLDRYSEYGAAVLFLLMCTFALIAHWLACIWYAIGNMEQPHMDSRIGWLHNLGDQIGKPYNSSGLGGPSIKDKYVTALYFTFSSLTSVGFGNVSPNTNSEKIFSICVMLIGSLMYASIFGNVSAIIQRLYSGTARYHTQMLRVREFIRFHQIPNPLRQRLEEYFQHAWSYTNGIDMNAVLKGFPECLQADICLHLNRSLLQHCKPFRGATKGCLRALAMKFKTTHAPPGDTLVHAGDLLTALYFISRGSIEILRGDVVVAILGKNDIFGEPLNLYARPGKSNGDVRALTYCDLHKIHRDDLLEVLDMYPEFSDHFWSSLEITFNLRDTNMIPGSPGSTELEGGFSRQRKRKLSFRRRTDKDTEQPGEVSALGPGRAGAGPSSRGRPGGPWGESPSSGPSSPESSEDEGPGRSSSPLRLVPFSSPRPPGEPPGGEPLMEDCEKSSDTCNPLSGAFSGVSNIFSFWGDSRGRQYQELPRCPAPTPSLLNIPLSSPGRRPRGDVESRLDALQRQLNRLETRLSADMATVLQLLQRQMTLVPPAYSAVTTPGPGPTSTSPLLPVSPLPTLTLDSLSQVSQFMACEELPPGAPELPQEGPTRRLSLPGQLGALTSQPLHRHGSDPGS

Cytochrome P450 1A2 = target: T4, Cytochrome P450 1A2 (Homo sapiens, UniProt P05177);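 also: PubChem cytochrome P450 panel assay, CYP1A2 panel member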
T4 sequence (P05177 whole entry): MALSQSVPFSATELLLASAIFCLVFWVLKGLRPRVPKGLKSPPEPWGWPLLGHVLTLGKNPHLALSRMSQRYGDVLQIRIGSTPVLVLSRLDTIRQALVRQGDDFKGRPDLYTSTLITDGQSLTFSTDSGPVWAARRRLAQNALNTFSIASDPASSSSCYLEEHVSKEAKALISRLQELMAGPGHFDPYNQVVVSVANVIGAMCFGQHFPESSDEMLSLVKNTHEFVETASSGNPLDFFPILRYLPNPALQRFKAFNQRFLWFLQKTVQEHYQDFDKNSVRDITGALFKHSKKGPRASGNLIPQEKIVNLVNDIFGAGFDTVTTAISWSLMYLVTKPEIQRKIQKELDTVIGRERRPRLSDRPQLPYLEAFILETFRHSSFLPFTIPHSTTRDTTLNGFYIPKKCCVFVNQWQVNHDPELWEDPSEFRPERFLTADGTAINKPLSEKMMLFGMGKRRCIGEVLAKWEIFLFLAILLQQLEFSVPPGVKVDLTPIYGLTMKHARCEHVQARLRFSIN

Cytochrome P450 2C9 = Cytochrome P450 2C9 (Homo sapiens, UniProt P11712)
Cytochrome P450 2C9, sequence (P11712 whole entry): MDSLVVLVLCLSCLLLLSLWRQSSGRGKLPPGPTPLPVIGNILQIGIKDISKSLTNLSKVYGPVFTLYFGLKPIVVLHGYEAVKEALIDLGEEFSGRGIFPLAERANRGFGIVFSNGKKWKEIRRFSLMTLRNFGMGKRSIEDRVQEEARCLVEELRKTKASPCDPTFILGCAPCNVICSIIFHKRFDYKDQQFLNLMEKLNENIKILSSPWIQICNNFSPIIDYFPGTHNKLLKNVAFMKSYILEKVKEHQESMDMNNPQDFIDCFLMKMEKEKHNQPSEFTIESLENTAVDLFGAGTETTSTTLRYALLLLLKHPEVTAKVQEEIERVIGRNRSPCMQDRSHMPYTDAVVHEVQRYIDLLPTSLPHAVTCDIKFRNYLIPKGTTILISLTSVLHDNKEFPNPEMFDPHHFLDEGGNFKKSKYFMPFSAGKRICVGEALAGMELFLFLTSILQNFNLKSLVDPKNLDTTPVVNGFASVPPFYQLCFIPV

Cytochrome P450 3A4 = Cytochrome P450 3A4 (Homo sapiens, UniProt P08684);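 also: CYP3A4 tested as one member of a cytochrome P450 panel screen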
Cytochrome P450 3A4, sequence (P08684 whole entry): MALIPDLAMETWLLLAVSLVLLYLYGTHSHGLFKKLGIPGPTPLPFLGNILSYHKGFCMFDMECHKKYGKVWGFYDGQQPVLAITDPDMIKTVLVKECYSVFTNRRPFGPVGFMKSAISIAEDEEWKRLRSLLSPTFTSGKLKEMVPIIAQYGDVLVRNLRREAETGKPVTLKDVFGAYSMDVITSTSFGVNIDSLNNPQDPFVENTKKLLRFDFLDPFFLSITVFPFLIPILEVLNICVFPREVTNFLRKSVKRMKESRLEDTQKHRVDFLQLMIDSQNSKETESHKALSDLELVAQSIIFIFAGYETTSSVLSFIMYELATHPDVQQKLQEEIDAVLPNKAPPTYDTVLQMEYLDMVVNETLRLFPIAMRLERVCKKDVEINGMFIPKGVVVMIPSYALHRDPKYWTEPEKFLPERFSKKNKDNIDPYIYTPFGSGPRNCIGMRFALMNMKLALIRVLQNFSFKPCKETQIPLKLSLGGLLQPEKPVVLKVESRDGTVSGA

Cytochrome P450 2C19 = Cytochrome P450 2C19 (Homo sapiens, UniProt P33261); assay: Cytochrome panel assay with activity outcomes. Panel member name: p450-cyp2c19 Compounds with AC50 equal or less than 10 uM are considered active; assay type: functional
Cytochrome P450 2C19, sequence (P33261 whole entry): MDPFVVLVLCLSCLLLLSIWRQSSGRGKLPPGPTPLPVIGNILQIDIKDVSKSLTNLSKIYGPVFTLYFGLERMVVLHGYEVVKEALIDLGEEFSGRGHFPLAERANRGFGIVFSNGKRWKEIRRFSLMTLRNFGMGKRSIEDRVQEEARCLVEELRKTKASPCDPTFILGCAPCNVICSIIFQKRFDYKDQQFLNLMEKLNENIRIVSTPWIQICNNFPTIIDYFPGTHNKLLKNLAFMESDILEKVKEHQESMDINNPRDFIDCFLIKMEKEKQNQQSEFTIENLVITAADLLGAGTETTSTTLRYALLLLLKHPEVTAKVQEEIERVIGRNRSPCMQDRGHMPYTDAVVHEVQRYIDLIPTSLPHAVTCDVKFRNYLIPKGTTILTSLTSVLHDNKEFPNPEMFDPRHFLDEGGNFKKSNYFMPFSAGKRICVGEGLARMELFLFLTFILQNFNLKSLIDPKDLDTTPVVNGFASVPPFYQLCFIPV

Cytochrome P450 2D6 = Cytochrome P450 2D6 (Homo sapiens, UniProt P10635);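 also: CYP2D6 member of a cytochrome P450 panel assay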
Cytochrome P450 2D6, sequence (P10635 whole entry): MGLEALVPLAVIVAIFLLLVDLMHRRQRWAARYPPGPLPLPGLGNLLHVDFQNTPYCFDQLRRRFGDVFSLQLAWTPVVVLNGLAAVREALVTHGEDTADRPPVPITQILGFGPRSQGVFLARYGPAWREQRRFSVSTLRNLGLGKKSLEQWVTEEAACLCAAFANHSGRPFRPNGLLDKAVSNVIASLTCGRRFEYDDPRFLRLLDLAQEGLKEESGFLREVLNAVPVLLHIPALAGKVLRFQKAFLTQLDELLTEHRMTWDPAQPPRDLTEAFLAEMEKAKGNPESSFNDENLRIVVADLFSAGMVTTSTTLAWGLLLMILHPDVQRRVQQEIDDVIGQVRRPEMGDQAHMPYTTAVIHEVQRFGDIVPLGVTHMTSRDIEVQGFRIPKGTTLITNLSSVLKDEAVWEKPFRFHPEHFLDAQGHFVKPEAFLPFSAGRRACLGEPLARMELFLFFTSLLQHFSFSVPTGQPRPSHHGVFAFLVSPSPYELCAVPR

[15] = viability of PTEN-deleted HCT116 cells – cell-based, HCT116 PTEN knockout, dose response (AID 1047); assay type: functional;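 also: HCT116 colon tumor cells with PTEN knocked out; cells exposed to compound for 60 hours before readout; potency for loss of cell viability measured by luminescence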
[16] = viability of HCT116 lacking mutant beta-catenin – cell-based, human colon tumor, dose response (AID 1045); assay type: functional;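 also: HCT116 colon tumor cells with beta catenin knocked out; cells exposed to compound for 60 hours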
HEK293 [17] = assay: cells; conditions: Homo sapiens
HEK293 [18] = assay: cells; conditions: Homo sapiens; remark: listed apart in the source

With `CCCn1c(SCC(=O)Nc2nc3c(s2)CCCC3)nc2c1c(=O)n(C)c(=O)n2C` the IC50 [1] was > 25 µM (inactive), the IC50 (Interleukin-8 [2]) was > 25 µM (inactive) and the IC50 (Interleukin-8 [3]) was > 25 µM (inactive). For the same compound, the IC50 [4] was 1.98 µM (active), the IC50 (HEK293 [5]) was > 20 µM (inactive) and the IC50 [6] was 1.63 µM (active). The IC50 [7] was 1.36 µM (active), the IC50 (Tumor necrosis factor) was 2.12 µM (active) and the IC50 (HEK293 [8]) was > 20 µM (inactive). For the same compound, the IC50 [9] was 1.2 µM (active).
In the case of `C/C=C/Cn1c(SCc2ccc(Cl)cc2)nc2c1c(=O)[nH]c(=O)n2C`, the IC50 [1] is reported as > 25 µM (inactive), the IC50 (Interleukin-8 [2]) is reported as > 25 µM (inactive) and the IC50 (Interleukin-8 [3]) is reported as > 25 µM (inactive). The IC50 [4] was 13.7 µM (active), the IC50 (HEK293 [5]) was > 20 µM (inactive) and the IC50 [6] was 14.7 µM (active). For the same compound, the IC50 [7] was > 20 µM (inactive), the IC50 (Tumor necrosis factor) was > 20 µM (inactive) and the IC50 (HEK293 [8]) was > 20 µM (inactive). The IC50 [9] was > 20 µM (inactive).
With `COc1ccccc1OCCCC(=O)Nc1nccs1` the EC50 [10] was 5.11 µM (active).
For `Cc1ccc(-c2nc3ncccc3o2)cc1NC(=O)c1sc2ccccc2c1Cl`, the EC50 [10] was 0.722 µM (active), the AC50 [11] was 5.87 µM (active) and the AC50 [12] was 36.5 µM (active). The AC50 [13] was 11.8 µM (active).
For `Nc1nc2c(nc(Br)n2C2O[C@H]3CO[P@@](=O)(O)O[C@@H]3C2O)c(=O)[nH]1` (stereo not given in full), the AC50 [14] was 5.62 µM (inconclusive).
In the case of `c1ccc(C(c2ccccc2)N2CC3(CCNCC3)C2)cc1`, the AC50 (Cytochrome P450 1A2) is reported as 15.8 µM (inconclusive), the AC50 (Cytochrome P450 2C9) is reported as 39.8 µM (inconclusive) and the AC50 (Cytochrome P450 3A4) is reported as “inconclusive”.
In the case of `O=C(O)CC1(C(=O)O)CCCCC1`, the AC50 (Cytochrome P450 2C19) is reported as “inconclusive” and the AC50 (Cytochrome P450 2D6) is reported as “inconclusive”.
For `COc1ccc(-c2[nH]c(-c3ccc(Cl)cc3)nc2SCC(=O)Nc2nccs2)cc1`, the EC50 [15] was 15.9 µM (active), the EC50 [16] was 15.3 µM (active) and the EC50 (HEK293 [17]) was > 59.7 µM (inactive). For the same compound, the EC50 (HEK293 [18]) was > 59.7 µM (inactive).
